From ChEMBL document CHEMBL4014353, “1,2,4-Triazolo-[1,5-a]pyridine HIF Prolylhydroxylase Domain-1 (PHD-1) Inhibitors With a Novel Monodentate Binding Interaction” (J Med Chem, 2017)
In brackets after ≈: the same amount, converted by molar mass.

Legend:
[1] = Ratio of unbound brain to plasma concentration in C57BL/6 mouse at 3 mg/kg, po or 0.5 mg/kg, iv administered as cassette dose; assay type: ADME, organism-based; details: brain and plasma, read-out: K(p,uu,brain)
[2] = Protein binding in mouse plasma; assay type: ADME, cell-free; details: read-out: PPB (converted)
[3] = Kinetic solubility of the compound by LC-UV/MS analysis; assay type: physicochemical; details: read-out: Kinetic_solubility
[4] = Ratio of drug level in C57BL/6 mouse brain to plasma at 3 mg/kg, po or 0.5 mg/kg, iv administered as cassette dose; assay type: ADME, organism-based; details: brain and plasma, read-out: BPR
[5] = Clearance in C57BL/6 mouse at 0.5 mg/kg, iv administered as cassette dose; assay type: ADME, organism-based; details: in vivo
[6] = Permeability of the compound after 5 hrs by PAMPA; assay type: physicochemical; details: read-out: permeability
[7] = AUC (0 to t) in C57BL/6 mouse at 3 mg/kg, po administered as cassette dose; assay type: ADME, organism-based; details: in vivo
[8] = Oral bioavailability in C57BL/6 mouse at 3 mg/kg administered as cassette dose; assay type: ADME, organism-based; details: in vivo
[9] = Cmax in C57BL/6 mouse at 3 mg/kg, po administered as cassette dose; assay type: ADME, organism-based; set-up: dose 3 mg/kg, route oral; details: in vivo

| Structure (SMILES) | Kp uu [1] | fraction unbound [2] | solubility kinetic [3] | Kp [4] | clearance [5] | Papp at 5 h [6] | AUC(0-t) [7] | bioavailability [8] | Cmax [9] |
| --- | --- | --- | --- | --- | --- | --- | --- | --- | --- |
| Cc1cc(C#N)ccc1-c1cc(N)cc2ncnn12 | 0.39 | 0.302 | 151 µM (≈ 37.6 µg/mL) | 0.21 | 0.48 mL/min/kg | 5.9 ×10⁻⁶ cm/s | 40000 ng·h/mL | 39% | 14.8 µM |
| Cc1cc(C#N)ccc1-c1cccc2ncnn12 | 1.59 | 0.21 | 189 µM (≈ 44.3 µg/mL) | 0.88 | 31.6 mL/min/kg | 40.9 ×10⁻⁶ cm/s | 1870 ng·h/mL | 100% | 5.58 µM |
| CC(=O)Nc1cc(-c2ccc(C#N)cc2C)n2ncnc2c1 | 0.02 | 0.486 | 99 µM (≈ 28.8 µg/mL) | 0.03 | 17.5 mL/min/kg | 2.9 ×10⁻⁶ cm/s | 3660 ng·h/mL | 100% | 5 µM |
| N#Cc1ccc(-c2cccc3ncnn23)cc1 | 1.11 | 0.287 | 44 µM (≈ 9.69 µg/mL) | 0.95 | 108 mL/min/kg | 24.6 ×10⁻⁶ cm/s | 176 ng·h/mL | 40% | 0.8 µM |
